In US12409206B2, “Use of cyclosporine analogues for treating fibrosis” (Hepion Pharmaceuticals, Inc., priority 2020, dated 2025):

Experiments:
Format in all cases: cell-based
[1] = system: human precision cut liver slices (PCLS); test: PCLS gene expression by RT-PCR; details: CRV431 applied at 5 μM; markers MCP-1, IL-6, TIMP1, αSMA, collagen 1α1
Description: (§1) PCLS were obtained from 5 human donors who underwent resection of liver cancer. Replicate slices were collected from healthy margins of the resections and cultured for 4 or 6 days depending on the experimental protocol. In the Nonstimulation Protocol slices were cultured for 6 days and treated for the entire period with DMSO vehicle or 5 μM CRV431. In the Stimulation Protocol slices were rested for 1 day and then administered the cytokines, TGFβ and PDGF-BB, for 3 days to stimulate inflammation and fibrosis. DMSO vehicle, CRV431 (1 and 5 μM), Alk5i (10 μM), obeticholic acid (5 μM), elafibranor (5 μM), resmetirom ([…]), and Aramchol (5 μM) were administered individually as drug treatments in the Stimulation Protocol concurrent with TGFβ+PDGF-BB. Culture medium treatments were replaced daily.
(§2) Four types of evaluations were conducted on the PCLS: (a) secretion of inflammation and fibrosis biomarkers into the culture medium, (b) histological staining and quantitation of Sirius red as a measure of tissue fibrosis, (c) gene expression of inflammation and fibrosis biomarkers by RT-PCR, and (d) RNA sequencing (RNA-Seq) of the complete transcriptome. Each of the four types of evaluation is described below: • (a) Biomarker secretion. Spent culture medium was collected daily from duplicate slices for each treatment. ELISAs were used to quantify secretion of monocyte chemoattractant protein (MCP-1), interleukin-6 (IL-6), tissue inhibitor of metalloproteinase-1 (TIMP1), hyaluronic acid, fibronectin, and collagen 1α1. For each donor the mean level of biomarker secretion in each treatment group was expressed as a percentage change relative to DMSO vehicle, the percentages averaged for all donors, and finally the mean daily percentage change calculated from all days of evaluation. […] Sirius red was quantified morphometrically in the histological sections as the percentage area with Sirius red staining in 10 sections from each treatment. In the Nonstimulation Protocol the quantity of Sirius red staining was expressed relative to the vehicle group. In the Stimulation Protocol the quantity of Sirius red staining was expressed relative to nonstimulated PCLS (0%) and TGFβ+PDGF-BB-stimulated+vehicle PCLS (100%). […] RNA was isolated from duplicate liver slices per treatment at the end of the experiments and evaluated by RT-PCR for 5 markers of inflammation and fibrosis: MCP-1, IL-6, TIMP1, αSMA, and collagen 1α1. β actin was used as a reference gene to calculate relative levels of each target gene RNA. […] RNA sequencing of the complete transcriptome (30 million reads per sample) was conducted on vehicle and 5 μM CRV431 treatment groups from 3 donors both from the Nonstimulation and Stimulation Protocols. […]

[2] = system: human precision cut IPF lung slices; test: Gene expression (RT-PCR) in precision cut IPF lung slices in culture; details: CRV431 applied at 5 μM; Day 6 of culture after 4 days of treatment; β actin reference
Description: (§3) This example describes a study conducted with precision cut lung slices. Precision cut slices from explanted lung tissue from a patient with biopsy-confirmed, idiopathic pulmonary fibrosis (IPF) were cultured for 6 days. Treatments were applied to 6 replicate slices per treatment on Day 2 of culture and replaced daily on Days 3, 4, and 5 of culture.
For generating the results of gene expression shown in FIG. 6B, RNA was isolated from 6 pooled lung slices per treatment on Day 6 of culture following 4 days of drug or vehicle treatment and evaluated by reverse transcription-polymerase chain reaction (RT-PCR) for 6 markers of inflammation and fibrosis: MCP-1, IL-6, TGFβ TIMP1, collagen 1α1, and α-smooth muscle actin (αSMA). β actin was used as a reference gene to calculate relative levels of each target gene RNA.

[3] = system: human precision cut liver slices (PCLS); test: PCLS biomarker secretion (ELISA); details: CRV431 applied at 5 μM; markers MCP-1, IL-6, TIMP1, hyaluronic acid, fibronectin, collagen 1α1
Description: as §1, §2

[4] = system: human precision cut IPF lung slices; test: Secreted markers (ELISA) in precision cut IPF lung slices in culture; details: CRV431 applied at 5 μM; 4 daily treatment intervals; relative to DMSO vehicle
Description: as §3
For generating the results of secreted marker (% daily average change) shown in FIG. 6A, spent medium (24-hr intervals) was collected on Days 3, 4, 5, and 6 to measure secretion by ELISA of six markers of inflammation and fibrosis: monocyte chemoattractant protein (MCP-1), interleukin-6 (IL-6), matrix metalloproteinase-7 (MMP-7), tissue inhibitor of metalloproteinase-1 (TIMP1), hyaluronic acid, and collagen 1α1. The mean level of secretion from 6 replicate slices for each drug treatment was expressed as a percentage change relative to DMSO vehicle treatment for each day of treatment, and then the mean percentage change from 4 daily treatment intervals was calculated.

COC(=O)c1ccc2c(c1)NC(=O)/C2=C(\Nc1ccc(N(C)C(=O)CN2CCN(C)CC2)cc1)c1ccccc1 [nintedanib, reference compound]
decreased: gene expression of all markers [1] | gene expression of all markers (MCP-1, IL-6, TGFβ, TIMP1, collagen 1α1, αSMA) [2] | mean daily secretion of all markers [3] | mean daily secretion of all markers (MCP-1, IL-6, MMP-7, TIMP1, hyaluronic acid, collagen 1α1) [4]

Cc1ccc(=O)n(-c2ccccc2)c1 [pirfenidone, reference compound]
decreased: gene expression of all markers [1] | gene expression of all markers (MCP-1, IL-6, TGFβ, TIMP1, collagen 1α1, αSMA) [2] | mean daily secretion of all markers [3] | mean daily secretion of all markers (MCP-1, IL-6, MMP-7, TIMP1, hyaluronic acid, collagen 1α1) [4]
